Test results as given in patent publication US20160324992A1, “IDENTIFICATION AND TREATMENT OF VULNERABLE PLAQUES” (OTTAWA HEART INSTITUTE RESEARCH CORPORATION, priority 2015, published 2016).

Assays:
[1] = tested on: reactive oxygen species (ROS); settings: BMDMs pre-incubated with 50 μM DPI, oxLDL or oxLDL+zVAD.fmk 3 h
Description: Measurement of Reactive Oxygen Species (ROS). BMDMs were pre-incubated with DPI for 30 minutes followed by the cell permeant reagent 2′, 7′-dichloroflurescin diacetate (DCFDA) fluorescent dye for 1 h. Cells were then treated with oxLDL or oxLDL+zVAD.fmk and fluorescence was measured at 3 h and 24 h as per manufacturers' instructions (Abcam, ab113851).

PGAM5 = settings: macrophages, DPI
RIP3 = settings: BMDMs, pre-treatment with 50 μM DPI
Description: (§1) RNA isolation and quantitative real-time PCR. BMDMs were treated with control media with or without oxLDL or oxLDL+zVAD.fmk for the indicated time points with or without 1 h pre-treatment with 50 μM DPI. Alternatively, BMDMs were polarized to M0, M1 or M2 prior to RNA isolation, as described above. Total RNA was isolated using TRIzol reagent (Invitrogen) as per manufacturer's instructions and cDNA was synthesized using iScript Reverse Transcription kit (BioRad™). Quantitative real-time PCR was performed in triplicate using either the Sso Advanced Universal SYBR Green Supermix (Biorad) or Taqman™ Gene Expression Assay and mRNA level of target genes was normalized to HPRT or β-actin house keeping genes.
as §1, with “uM” for “μM”, “Total RNA was isolated using TRIzol reagent (Invitrogen) as per manufacturer's instructions and cDNA was synthesized using iScript Reverse Transcription kit (BioRad™).” left out, “Taqman®” for “Taqman™”

MLKL = settings: BMDMs, pre-treatment with 50 μM DPI
Description: as §1
as §1, with “uM” for “μM”, “Total RNA was isolated using TRIzol reagent (Invitrogen) as per manufacturer's instructions and cDNA was synthesized using iScript Reverse Transcription kit (BioRad™).” left out, “Taqman®” for “Taqman™”

human MLKL promoter = settings: RAW macrophages, 50 uM DPI pre-treatment, oxLDL 6 or 24 h
Description: (§2) Promoter Luciferase Assay. Luciferase reporter constructs containing the human MLKL and RIP3 promoters were purchased from SwitchGear Genomics (Carlsbad, CA). RAW264.7 (ATCC) macrophages were plated in 24-well plates in 10% FBS DMEM and transfected using Lipofectamine 2000 (Life Technologies) with MLKL-promoter or RIP3-promoter plasmids (renilla-based luciferase reporter) together with pGL3 basic (firefly-based reporter, Promega) to normalize for transfection efficiency. Twenty-four hours after transfection, cells were treated with or without 100 μg/ml oxLDL as above, for an additional 24 hours. Cells were harvested in lx passive lysis buffer and luciferase measured using the Dual Luciferase Assay (Promega) according to manufacturer's instructions. All experiments were performed in quadruplicate technical replicates at least 3 times.
(§3) Promoter Luciferase Assay. Luciferase reporter constructs containing the human MLKL and RIP3 promoters were purchased from SwitchGear Genomics (Carlsbad, CA). […] Cells were harvested in 1× passive lysis buffer and luciferase measured using the Dual Luciferase Assay (Promega) according to manufacturer's instructions. […]

human RIP3 promoter = settings: RAW macrophages, 50 uM DPI pre-treatment, oxLDL 6 or 24 h
Description: as §2, §3

c1ccc2c(c1)[I+]c1ccccc1-2 [DPI, diphenyleneiodonium]
oxLDL-induced production of ROS (in words) [1]: inhibited
oxLDL-induced PGAM5 expression (in words) (PGAM5): similarly inhibited
induction of RIP3 mRNA expression by oxLDL and oxLDL+zVAD.fmk (in words) (RIP3): inhibited
induction of MLKL mRNA expression by oxLDL and oxLDL+zVAD.fmk (in words) (MLKL): inhibited
oxLDL-induced MLKL promoter activity (in words) (human MLKL promoter): significantly blunted
oxLDL-induced RIP3 promoter activity (in words) (human RIP3 promoter): significantly blunted
